Measured values from patent US9856279B2 (AGIOS PHARMACEUTICALS, INC, priority 2011, dated 2018).

What follows are compounds tested against IDH1 R132H (Homo sapiens, UniProt O75874, R132H) (assay: Assay for IDH1 R132H inhibitors (NADPH/aKG, resazurin detection)). Conditions: Table 3; enzyme assay, 50 minutes at room temperature; read-out: IC50 (IDH1 R132H Inhibition).
Assay type: biochemical
Outline: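 Read-out is resorufin fluorescence (Ex544/Em590) 5 min after adding a 30 μM resazurin detection mix. Before that, mutant enzyme (0.2 μg/ml in its mix) ran 50 min at room temperature with compound, 8 uM NADPH and 2 mM aKG (mix levels) in Tris pH 7.5 with NaCl, MgCl2, BSA.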

IDH1 R132H, sequence (O75874 whole entry R132H): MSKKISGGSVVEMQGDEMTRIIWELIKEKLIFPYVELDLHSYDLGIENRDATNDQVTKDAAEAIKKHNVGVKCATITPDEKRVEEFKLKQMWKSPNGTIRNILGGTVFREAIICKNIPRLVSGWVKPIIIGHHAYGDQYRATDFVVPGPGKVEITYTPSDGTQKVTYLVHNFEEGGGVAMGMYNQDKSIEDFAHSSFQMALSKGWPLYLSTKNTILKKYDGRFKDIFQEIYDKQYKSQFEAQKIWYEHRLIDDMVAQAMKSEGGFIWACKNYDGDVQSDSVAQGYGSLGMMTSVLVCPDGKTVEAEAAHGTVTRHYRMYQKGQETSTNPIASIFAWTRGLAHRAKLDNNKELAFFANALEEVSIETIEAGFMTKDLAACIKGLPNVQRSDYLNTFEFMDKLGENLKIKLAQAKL

Q: Which IC50 does the source give for `CC(C)c1nc(N2CCN(C(=O)c3ccco3)[C@H](C)C2)c(C#N)cc1-c1ccc(C(F)(F)F)cc1` [Compound 185, (R)-2-(4-(furan-2-carbonyl)-3-methylpiperazin-1-yl)-6-isopropyl-5-(4-(trifluoromethyl)phenyl) nicotinonitrile] here?
A: Its IC50 is 1 to 5 µM.

Q: `CC(C)c1cc(-c2cccc(F)c2)c(C#N)c(N2CCN(C(=O)c3ccoc3)C(C)C2)n1` (stereo not drawn) [Compound 128, 4-(3-fluorophenyl)-2-(4-(furan-3-carbonyl)-3-methylpiperazin-1-yl)-6-isopropylnicotinonitrile] was tested. Which IC50 did it give?
A: Its IC50 is 1 to 5 µM.

Q: `COCCC(=O)N1CCN(c2nc(C3CC3)c(-c3cncc4ccccc34)cc2C#N)C[C@H]1C` [Compound 242, (R)-6-cyclopropyl-5-(isoquinolin-4-yl)-2-(4-(3-methoxypropanoyl)-3-methylpiperazin-1-yl)nicotinonitrile] was tested. Which IC50 did it give?
A: The IC50 was at most 1 µM.

Q: `COCCC(=O)N1CCN(c2nc(C3CC3)c(-c3ccsc3)cc2C#N)C[C@H]1C` [Compound 246, (R)-6-cyclopropyl-2-(4-(3-methoxypropanoyl)-3-methylpiperazin-1-yl)-5-(thiophen-3-yl)nicotinonitrile] was tested. Which IC50 did it give?
A: The IC50 was at most 1 µM.

Q: `COCCC(=O)N1CCN(c2nc(C(C)C)c(-c3ccc(C(C)C)cc3)cc2C#N)C[C@H]1C` [Compound 208, (R)-6-isopropyl-5-(4-isopropylphenyl)-2-(4-(3-methoxypropanoyl)-3-methylpiperazin-1-yl)nicotinonitrile] was tested. Which IC50 did it give?
A: Its IC50 is 1 to 5 µM.

Q: `CC(C)c1cc(-c2ccccc2)c(C#N)c(N2CCN(C(=O)c3ccoc3)C(C)C2)n1` (stereo not drawn) [Compound 110, 2-(4-(furan-3-carbonyl)-3-methylpiperazin-1-yl)-6-isopropyl-4-phenylnicotinonitrile] was tested. Which IC50 did it give?
A: Its IC50 is 1 to 5 µM.

Q: `CC(C)c1nc(N2CCN(C(=O)c3c[nH]c4ccccc34)CC2)c(C#N)cc1-c1ccccc1` [Compound 125, 2-(4-(1H-indole-3-carbonyl)piperazin-1-yl)-6-isopropyl-5-phenylnicotinonitrile] was tested. Which IC50 did it give?
A: Its IC50 is 5 to 15 µM.

Q: Which IC50 does the source give for `CC(C)c1cc(-c2ccccc2)c(C#N)c(N2C[C@@H](C)N(C(=O)c3ccccc3)[C@@H](C)C2)n1` [Compound 101, 2-((3S,5R)-4-benzoyl-3,5-dimethylpiperazin-1-yl)-6-isopropyl-4-phenylnicotinonitrile] here?
A: The IC50 was 1 to 5 µM.

Q: For `COCCC(=O)N1CCN(c2nc(C3CC3)c(-c3ccc(OC)nc3)cc2C#N)C[C@H]1C` [Compound 252, (R)-2-cyclopropyl-6′-methoxy-6-(4-(3-methoxypropanoyl)-3-methylpiperazin-1-yl)-3,3′-bipyridine-5-carbonitrile], which IC50 is on record?
A: The IC50 was at most 1 µM.

Q: `CC(C)c1nc(N2CCN(C(=O)Cc3ccccc3)C(C)C2)c(C#N)cc1-c1ccccc1` (stereo in doubt) [Compound 145, (R)-6-isopropyl-2-(3-methyl-4-(2-phenylacetyl)piperazin-1-yl)-5-phenylnicotinonitrile] was tested. Which IC50 did it give?
A: Its IC50 is 1 to 5 µM.

Q: Which IC50 does the source give for `COCCC(=O)N1CCN(c2nc(C(C)C)c(-c3cccc(Cl)c3)cc2C#N)C[C@H]1C` [Compound 218, (R)-5-(3-chlorophenyl)-6-isopropyl-2-(4-(3-methoxypropanoyl)-3-methylpiperazin-1-yl)nicotinonitrile] here?
A: Its IC50 is 1 to 5 µM.

Q: How did the IC50 turn out when `Cc1cccc(-c2cc(C#N)c(N3CCN(C(=O)c4ccoc4C)[C@H](C)C3)nc2C(C)C)c1` [Compound 200, (R)-6-isopropyl-2-(3-methyl-4-(2-methylfuran-3-carbonyl)piperazin-1-yl)-5-m-tolylnicotinonitrile] was run?
A: Its IC50 is 1 to 5 µM.

Same assay, conditions: enzyme assay of Example 12; read-out: IDH1R132H IC50

Q: For `CCOC(=O)[C@@H]1C[C@H]1C(=O)N1CCN(c2nc(C3CC3)c(-c3cccc4cnccc34)cc2C#N)C[C@H]1C` [Compound 435, (1R,2R)-ethyl 2-((R)-4-(3-cyano-6-cyclopropyl-5-(isoquinolin-5-yl)pyridin-2-yl)-2-methylpiperazine-1-carbonyl)cyclopropanecarboxylate], which IC50 is on record?
A: Its IC50 is 0.5 to 1 µM.

Q: How did the IC50 turn out when `COCCC(=O)N1CCN(c2nc(C3CC3)c(-c3cncc(C)c3)c(C)c2C#N)C[C@H]1C` [Compound 318] was run?
A: Its IC50 is under 0.5 µM.

Q: How did the IC50 turn out when `COCCC(=O)N1CCN(c2nc(C3CC3)c(-c3cccc(CC(=O)OC)c3)cc2C#N)C[C@H]1C` [Compound 291, (R)-methyl 2-(3-(5-cyano-2-cyclopropyl-6-(4-(3-methoxypropanoyl)-3-methylpiperazin-1-yl)pyridin-3-yl)phenyl)acetate] was run?
A: The IC50 was 0.5 to 1 µM.

Q: `COCCC(=O)N1CCN(c2nc(C3CC3)c(-c3cccc4c(O)ncnc34)cc2C#N)C[C@H]1C` [Compound 430] was tested. Which IC50 did it give?
A: The IC50 was 1 to 10 µM.

Q: How did the IC50 turn out when `CCO[C@H]1C[C@H]1C(=O)N1CCN(c2nc(C3CC3)c(-c3ccc(F)cc3)cc2C#N)C[C@H]1C1CC1` [Compound 564, 6-cyclopropyl-2-((R)-3-cyclopropyl-4-((1R,2S)-2-ethoxycyclopropanecarbonyl)piperazin-1-yl)-5-(4-fluorophenyl)nicotinonitrile] was run?
A: The IC50 was under 0.5 µM.

Q: `COCCC(=O)N1CCN(c2nc(C3CC3)c(-c3cccc(NC(=O)/C=C/CN(C)C)c3)cc2C#N)C[C@H]1C` [Compound 441, (R,E)-N-(3-(5-cyano-2-cyclopropyl-6-(4-(3-methoxypropanoyl)-3-methylpiperazin-1-yl)pyridin-3-yl)phenyl)-4-(dimethylamino)but-2-enamide] was tested. Which IC50 did it give?
A: Its IC50 is 0.5 to 1 µM.

Q: How did the IC50 turn out when `Cc1nccc2c(-c3cc(C#N)c(N4CCN(C(=O)C5CC5)[C@H](C5CC5)C4)nc3C3CC3)cccc12` [Compound 497, (R)-2-(4-(cyclopropanecarbonyl)-3-cyclopropylpiperazin-1-yl)-6-cyclopropyl-5-(1-methylisoquinolin-5-yl)nicotinonitrile] was run?
A: Its IC50 is under 0.5 µM.

Q: How did the IC50 turn out when `N#Cc1cc(-c2cccc3nc(N)ncc23)c(C2CC2)nc1N1CCN(C(=O)C2CC2)[C@H](C2CC2)C1` [Compound 538, (R)-5-(2-aminoquinazolin-5-yl)-2-(4-(cyclopropanecarbonyl)-3-cyclopropylpiperazin-1-yl)-6-cyclopropylnicotinonitrile] was run?
A: Its IC50 is under 0.5 µM.

Q: Which IC50 does the source give for `CCc1ccccc1-c1c(C2CC2)nc(N2CCN(C(=O)CCOC)[C@H](C)C2)c(C#N)c1C` [Compound 359, (R)-6-cyclopropyl-5-(2-ethyl-phenyl)-2-[4-(3-methoxy-propionyl)-3-methyl-piperazin-1-yl]-4-methyl-nicotinonitrile] here?
A: Its IC50 is under 0.5 µM.

Q: `N#Cc1cc(-c2cncc(-c3nnn[nH]3)c2)c(C2CC2)nc1N1CCN(C(=O)C2CC2)[C@H](C2CC2)C1` [Compound 554, (R)-6-(4-(cyclopropanecarbonyl)-3-cyclopropylpiperazin-1-yl)-2-cyclopropyl-5′-(1H-tetrazol-5-yl)-[3,3′-bipyridine]-5-carbonitrile] was tested. Which IC50 did it give?
A: The IC50 was under 0.5 µM.

Q: How did the IC50 turn out when `COCCC(=O)N1CCN(c2nc(C3CC3)c(-c3cccc(C(N)=O)c3)cc2C#N)C[C@H]1C` [Compound 305, (R)-3-(5-cyano-2-cyclopropyl-6-(4-(3-methoxypropanoyl)-3-methylpiperazin-1-yl)pyridin-3-yl)benzamide] was run?
A: The IC50 was 0.5 to 1 µM.

Q: How did the IC50 turn out when `N#Cc1cc(-c2cccc3cnccc23)c(C2CC2)nc1N1CCN(C(=O)CCC=O)[C@H](C2CC2)C1` [Compound 519, (R)-6-cyclopropyl-2-(3-cyclopropyl-4-(4-oxobutanoyl)piperazin-1-yl)-5-(isoquinolin-5-yl)nicotinonitrile] was run?
A: Its IC50 is 0.5 to 1 µM.

Q: For `COCCC(=O)N1CCN(c2nc(C3CC3)c(-c3cccc(COC)c3)c(C)c2C#N)C[C@H]1C` [Compound 322, (R)-6-cyclopropyl-5-(3-methoxymethyl-phenyl)-2-[4-(3-methoxy-propionyl)-3-methyl-piperazin-1-yl]-4-methyl-nicotinonitrile], which IC50 is on record?
A: The IC50 was under 0.5 µM.

Q: Which IC50 does the source give for `N#Cc1cc(-c2ccc3ncsc3c2)c(C2CC2)nc1N1CCN(C(=O)C2CC2)[C@H](C2CC2)C1` [Compound 487, (R)-5-(benzo[d]thiazol-6-yl)-2-(4-(cyclopropanecarbonyl)-3-cyclopropylpiperazin-1-yl)-6-cyclopropylnicotinonitrile] here?
A: The IC50 was under 0.5 µM.

Q: Which IC50 does the source give for `N#Cc1cc(-c2cn[nH]c2)c(C2CC2)nc1N1CCN(C(=O)C2CC2)[C@H](C2CC2)C1` [Compound 479, (R)-2-(4-(cyclopropanecarbonyl)-3-cyclopropylpiperazin-1-yl)-6-cyclopropyl-5-(1H-pyrazol-4-yl)nicotinonitrile] here?
A: The IC50 was 0.5 to 1 µM.

Q: `COCCC(=O)N1CCN(c2nc(C3CC3)c(-c3c(OC)cccc3OC)cc2C#N)C[C@H]1C` [Compound 316, (R)-6-cyclopropyl-5-(2,6-dimethoxyphenyl)-2-(4-(3-methoxypropanoyl)-3-methylpiperazin-1-yl)nicotinonitrile] was tested. Which IC50 did it give?
A: Its IC50 is 0.5 to 1 µM.

Q: For `COCCC(=O)N1CCN(c2nc(C3CC3)c(Nc3ccnc(OC)c3)cc2C#N)C[C@H]1C` [Compound 682, (R)-6-cyclopropyl-2-(4-(3-methoxypropanoyl)-3-methylpiperazin-1-yl)-5-((2-methoxypyridin-4-yl)amino)nicotinonitrile], which IC50 is on record?
A: The IC50 was under 0.5 µM.

Q: For `N#Cc1cc(-c2cnc3cnccn23)c(C2CC2)nc1N1CCN(C(=O)C2CC2)[C@H](C2CC2)C1` [Compound 503, (R)-2-(4-(cyclopropanecarbonyl)-3-cyclopropylpiperazin-1-yl)-6-cyclopropyl-5-(imidazo[1,2-a]pyrazin-3-yl)nicotinonitrile], which IC50 is on record?
A: Its IC50 is under 0.5 µM.
